Results from patent US20100093811A1 (priority 2007, published 2010).
Read-outs that look alike come from different tables or passages of the source.

How the values were obtained:
wild-type HIV-1 protease = wild-type HIV-1 protease (Human immunodeficiency virus type 1 group M subtype B, UniProt P04585); assay: Assay for inhibition of microbial expressed HIV protease; assay type: biochemical
Experimental: Assay for Inhibition of Microbial Expressed HIV Protease
Inhibition studies of the reaction of the protease (which was expressed in Eschericia coli) with a peptide substrate [Val-Ser-Gln-Asn-(betanapthyl)Ala-Pro-Ile-Val]. The inhibitor is first preincubated with the enzyme in assay buffer (50 mM sodium acetate, pH 5.5, 100 mM NaCl, and 0.1% BSA) for 30 minutes at room temperature. Substrate is added to 440 micromolar in a total volume of 80 microliters containing 5 picomolar HIV-1 protease, and the reaction is incubated for 1 hour at 30° C. The reaction is quenched by addition of 120 microliters of 10% phosphoric acid, and product formation is determined after separation of product and substrate on a Vydac C18 column connected to an Alliance high performance liquid chromatography system (Waters Corporation). The extent of inhibition of the reaction is determined from the peak area of the products.

[1] = tested on: acute HIV infection of T-lymphoid cells; assay: Assay for inhibition of HIV replication (spread assay); assay type: cell-based, HIV-1
Experimental: • Assay for Inhibition of HIV Replication
Assays for the inhibition of acute HIV infection of T-lymphoid cells were conducted in accordance with Vacca, J. P. et al., Proc. Natl. Acad. Sci. USA 1994, 91: 4096.

[2] = wild-type HIV-1 protease expressed in E. coli, peptide substrate, pH 5.5, read-out: Enzyme Inhibition - IC50
[3] = Human immunodeficiency virus 1, T-lymphoid, read-out: Spread - IC95

SMILES	IC50 (wild-type HIV-1 protease; [2])	IC95 [1, 3]	IC95 ([1]; Human immunodeficiency virus 1, T-lymphoid, read-out: Spread - IC95 (nM))	IC95 ([1]; inhibition of HIV-1 replication, 10% FBS, read-out: Spread - IC95)	IC50 (wild-type HIV-1 protease)
COC(=O)N[C@@H](Cc1cccc2ccccc12)C(=O)N[C@H](CCC[C@@H](CO)N(CCC(C)C)S(=O)(=O)c1ccc(N)cc1)C1CC1 [Example E9, methyl [(1S)-2-({(1R,5S)-5-[[(4-aminophenyl)sulfonyl](3-methylbutyl)amino]-1-cyclopropyl-6-hydroxyhexyl}amino)-1-(1-naphthylmethyl)-2-oxoethyl]carbamate]	0.354 nM	117 nM	–	–	–
C=C[C@H](CCC[C@@H](CO)N(CCC(C)C)S(=O)(=O)c1ccc(CO)cc1)NC(=O)[C@@H](NC(=O)OC)C(c1ccccc1)c1ccccc1 [Example J11, N-{(1S,5S)-6-hydroxy-5-[{[4-(hydroxymethyl)phenyl]sulfonyl}(3-metbylbutyl)amino]-1-vinylhexyl}-Nα-(methoxycarbonyl)-β-phenyl-L-phenylalaninamide]	0.185 nM	107 nM	–	–	–
CCCN([C@H](CO)CCC[C@@H](NC(=O)[C@@H](NC(=O)OC)C(c1ccccc1)c1ccccc1)C(F)(F)F)S(=O)(=O)c1ccc(N)cc1 [Example H1, N-[(1R,5S)-5-[[(4-aminophenyl)sulfonyl](propyl)amino]-6-hydroxy-1-(trifluoromethyl)hexyl]-Nα-(methoxycarbonyl)-β-phenyl-L-phenylalaninamide]	0.022 nM	–	14 nM	–	–
COC(=O)N[C@H](C(=O)N[C@H](CCC[C@@H](CO)N(CCC(C)C)S(=O)(=O)c1ccc(N)c(F)c1)C(C)C)C(c1ccccc1)c1ccccc1 [Example D16, N-{(1R,5S)-5-[[(4-amino-3-fluorophenyl)sulfonyl](3-methylbutyl)amino]-6-hydroxy-1-isopropylhexyl}-Nα-(methoxycarbonyl)-β-phenyl-L-phenylalaninamide]	0.329 nM	152 nM	–	–	–
CC[C@@H](CCC[C@@H](CO)N(CCC(C)C)S(=O)(=O)c1ccc(N)cc1)NC(=O)[C@H](Cc1ccccc1Br)NC(=O)OC [Example F3, N-{(1S,5S)-5-[[(4-aminophenyl)sulfonyl](3-methylbutyl)amino]-1-ethyl-6-hydroxyhexyl}-2-bromo-Nα-(methoxycarbonyl)-L-phenylalaninamide]	0.196 nM	25 nM	–	–	–
COC(=O)N[C@H](C(=O)N[C@H](CCC[C@@H](CO)N(C)S(=O)(=O)c1ccc(N)cc1)C1CC1)C(c1ccccc1)c1ccccc1 [Example I9, N-{(1R,5S)-5-[[(4-aminophenyl)sulfonyl](methyl)amino]-1-cyclopropyl-6-hydroxyhexyl}-Nα-(methoxycarbonyl)-β-phenyl-L-phenylalaninamide]	3.2 nM	323 nM	–	–	–
CC(C)N([C@H](CO)CCCC(C)(C)NC(=O)[C@@H](N)C(c1ccccc1)c1ccccc1)S(=O)(=O)c1ccc(N)cc1 [Example L2, N-{(5S)-5-[[(4-aminophenyl)sulfonyl](isopropyl)amino]-6-hydroxy-1,1-dimethylhexyl}-β-phenyl-L-phenylalaninamide]	0.018 nM	23 nM	–	–	–
COC(=O)N[C@H](C(=O)N[C@@H](C)CCC[C@@H](CO)N(CCC(C)C)S(=O)(=O)c1ccc(N)cc1)C(c1ccccc1)c1ccccc1 [D1(R), N-{(1S,5S)-5-[[(4-aminohenyl)sulfonyl](3-methylbutyl)amino]-6-hydroxy-1-methylhexyl}-Nα-(methoxycarbonyl)-β-phenyl-L-phenylalaninamide]	0.386 nM	–	–	98 nM	–
COC(=O)N[C@H](C(=O)N[C@H](CCC[C@@H](CO)N(CCC(C)C)S(=O)(=O)c1ccc(N)cc1)C1CC1)C(c1ccc(F)cc1)c1ccc(F)cc1 [Example E7, N-{(1R,5S)-5-[[(4-aminophenyl)sulfonyl](3-methylbutyl)amino]-1-cyclopropyl-6-hydroxyhexyl}-4-fluoro-β-(4-fluorophenyl)-Nα-(methoxycarbonyl)-L-phenylalaninamide]	0.066 nM	39 nM	–	–	–
COC(=O)N[C@H](C(=O)N[C@H](CCC[C@@H](CO)N(CC(C)C)S(=O)(=O)c1ccc(N)cc1)C(F)(F)F)C(c1ccccc1)c1ccccc1 [Example H5, N-[(1R,5S)-5-[[(4-aminophenyl)sulfonyl](isobutyl)amino]-6-hydroxy-1-(trifluoromethyl)hexyl]-Nα-(methoxycarbonyl)-β-phenyl-L-phenylalaninamide]	–	7 nM	–	–	0.02 nM
COC(=O)N[C@@H](Cc1ccccc1Br)C(=O)N[C@@H](C)CCC[C@@H](CO)N(C(C)C)S(=O)(=O)c1ccc(N)cc1 [Example G15, N-{(1S,SS)-5-[[(4-aminophenyl)sulfonyl](isopropyl)amino]-6-hydroxy-1-methylhexyl}-2-bromo-Nα-(methoxycarbonyl)-L-phenylalaninamide]	0.584 nM	77 nM	–	–	–
CCN([C@H](CO)CCC[C@H](C)NC(=O)[C@H](Cc1ccccc1Cl)NC(=O)OC)S(=O)(=O)c1ccc(CO)cc1 [Example G9, 2-chloro-N-[(1S,5S)-5-(ethyl{[4-(hydroxymethyl)phenyl]sulfonyl}amino)-6-hydroxy-1-methylhexyl]-Nα-(methoxycarbonyl)-L-phenylalaninamide]	0.629 nM	102 nM	–	–	–
CC[C@@H](CCC[C@@H](CO)N(CCCF)S(=O)(=O)c1ccc(N)cc1)NC(=O)[C@@H](NC(=O)OC)C(c1ccccc1)c1ccccc1 [Example D15, N-{(1S,5S)-5-[[(4-aminophenyl)sulfonyl](3-fluoropropyl)amino]-1-ethyl-6-hydroxyhexyl}-Nα-(methoxycarbonyl)-β-phenyl-L-phenylalaninamide]	0.268 nM	39 nM	–	–	–
CCCN([C@H](CO)CCC[C@H](CC)NC(=O)[C@@H](N)C(c1ccccc1)c1ccccc1)S(=O)(=O)c1ccc(CO)cc1 [Example J39, N-{(1S,5S)-1-ethyl-6-hydroxy-5-[{[4-(hydroxymethyl)phenyl]sulfonyl}(propyl)amino]hexyl}-β-phenyl-L-phenylalaninamide]	0.016 nM	39 nM	–	–	–
CC[C@@H](CCC[C@@H](CO)N(C(C)C)S(=O)(=O)c1ccc(CO)cc1)NC(=O)[C@@H](N)C(c1ccccc1)c1ccccc1 [Example J36, N-{(1S,5S)-1-ethyl-6-hydroxy-5-[{[4-(hydroxymethyl)phenyl]sulfonyl}(isopropyl)amino]hexyl}-β-phenyl-L-phenylalaninamide]	0.098 nM	27 nM	–	–	–
COC(=O)N[C@@H](Cc1ccccc1Cl)C(=O)N[C@H](CCC[C@@H](CO)N(CCC(C)C)S(=O)(=O)c1ccc([C@H](C)O)cc1)C1CC1 [Example J15, 2-chloro-N-{(1R,5S)-1-cyclopropyl-6-hydroxy-5-[({4-[(1S)-1-hydroxyethyl]phenyl}sulfonyl)(3-methylbutyl)amino]hexyl}-Nα-(methoxycarbonyl)-L-pbenylalaninamide]	0.372 nM	42 nM	–	–	–
COC(=O)N[C@H](C(=O)N[C@H](CCC[C@@H](CO)N(CCC(C)C)S(=O)(=O)c1ccc([C@H](C)O)cc1)C1CC1)C(c1ccc(F)cc1)c1ccc(F)cc1 [Example J3, N-{(1R,5S)-1-cyclopropyl-6-hydroxy-5-[({4-[(1S)-1-hydroxyethyl]phenyl}sulfonyl)(3-methylbutyl)amino]hexyl}-4-fluoro-β-(4-fluorophenyl)-Nα-(methoxycarbonyl)-L-phenylalaninamide]	0.011 nM	25 nM	–	–	–
C#C[C@@H](CCC[C@@H](CO)N(CCC(C)C)S(=O)(=O)c1ccc(CO)cc1)NC(=O)[C@@H](NC(=O)OC)C(c1ccccc1)c1ccccc1 [Example J13, N-{(1R,5S)-1-ethynyl-6-hydroxy-5-[{[4-(hydroxymethyl)phenyl]sulfonyl}(3-methylbutyl)amino]hexyl}-Nα-(methoxycarbonyl)-β-phenyl-L-phenylalaninamide]	0.01 nM	6 nM	–	–	–
CCN([C@H](CO)CCC[C@H](C)NC(=O)[C@@H](NC(=O)OC)C(c1ccccc1)c1ccccc1)S(=O)(=O)c1ccc(CO)cc1 [Example G1, N-[(1S,5S)-5-(ethyl{[4-(hydroxymethyl)phenyl]sulfonyl}amino)-6-hydroxy-1-methylhexyl]-Nα-(methoxycarbonyl)-β-phenyl-L-phenylalaninamide]	0.05 nM	37 nM	–	–	–
COC(=O)N[C@@H](Cc1ccccc1Cl)C(=O)N[C@@H](C)CCC[C@@H](CO)N(CCC(C)C)S(=O)(=O)c1ccc(N)cc1 [Example D7, N-{(1S,5S)-5-[[(4-aminophenyl)sulfonyl](3-methylbutyl)amino]-6-hydroxy-1-methylhexyl}-2-chloro-Nα-(methoxycarbonyl)-L-phenylalaninamide]	0.064 nM	19 nM	–	–	–
COC(=O)N[C@H](C(=O)N[C@H](CCC[C@@H](CO)N(CCC(C)C)S(=O)(=O)c1ccc(C(C)=O)cc1)C1CC1)C(c1ccc(F)cc1)c1ccc(F)cc1 [Example E5, N-{(1R,5S)-5-[[(4-acetylphenyl)sulfonyl](3-methylbutyl)amino]-1-cyclopropyl-6-hydroxyhexyl}-4-fluoro-β-(4-fluorophenyl)-Nα-(methoxycarbonyl)-L-phenylalaninamide]	0.053 nM	47 nM	–	–	–
